Measured values taken from PubChem BioAssay (NCI).
Where “and” joins values, the source holds several entries; their conditions need not be identical. Identical values can stand only once.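 Results reflect a 48-hour exposure of cells in 96-well plates to compound at five concentrations. GI50 marks 50% less growth. TGI marks complete inhibition of growth.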

Columns and labels:
Assay in all cases: NCI anticancer screen, dose series, 48 h
[1] = tested on: HCC-2998 colon
[2] = tested on: HL-60(TB) leukemia
[3] = tested on: LOX IMVI melanoma
[4] = tested on: NCI-H460 lung
[5] = tested on: SF-268 CNS
[6] = tested on: SF-539 CNS
[7] = tested on: SK-MEL-28 melanoma
[8] = tested on: SW-620 colon
[9] = tested on: TK-10 renal
[10] = tested on: SNB-75 CNS

Compound	TGI [1] [µM]	TGI [2]	TGI [3] [µM]	TGI [4] [µM]	TGI [5] [µM]	TGI [6] [µM]	TGI [7] [µM]	TGI [8]	TGI [9] [µM]	GI50 [1] [µM]	GI50 [2] [µM]	GI50 [4] [µM]	GI50 [5] [µM]	GI50 [6] [µM]	GI50 [7] [µM]	GI50 [10] [µM]	TGI [10] [µM]	GI50 [8] [µM]	GI50 [9]	GI50 [3] [µM]
OCC1OC(c2nc(C3=NCCCN3)cs2)C(O)C1O (stereo not given)	> 100	> 100 µM	> 100	> 100	> 100	> 100	> 100	> 100 µM	> 100											
Cn1cc(-c2csc(-c3c[nH]c4ccc(F)cc34)n2)c2cnccc21	3.66	4.32 µM		3.95	3.58	3.04	3.29	4.09 µM	3.75	1.95	2.19	1.99	1.94	1.63	1.86	1.5	2.85	2.12	2.22 µM	
O=C(CCc1n[nH]c(=S)o1)Nc1ccccc1C(F)(F)F	> 100	> 100 µM		> 100	> 100	> 100	> 100	49 µM	> 100								> 100			
COc1ccc(C(=O)/C=C/c2cc(-c3cc(OC)c(OC)c(OC)c3)n[nH]2)cc1OC	3.78	4.18 µM	2.76	3.33	3.96	2.6	3.34	2.99 µM	2.6	2.13	1.44	1.41	1.82	1.27	1.78			1.37	1.33 µM	1.38
COC1(OC)C(N(C)C)=C(Cl)C(=O)/C1=C/C=O	> 100	> 100 µM	> 100	> 100	> 100		> 100	> 100 µM	> 100											
N#C/C1=C(\N)CCSSSC1	> 100		> 100	51.2	> 100	> 100	> 100	> 100 µM	> 100								> 100			
COc1cc(-c2cc(-c3cc4c([nH]c5ccccc54)c(-c4cc(OC)c(OC)c(OC)c4)n3)cc(-c3ccccc3)n2)cc(OC)c1OC	> 100	11.3 µM	26.5	18.1	> 100	44.4	30.2	> 100 µM	31.2	7.3	3.09	3.37	4.96	4.97	4.3			3.62	4.5 µM	4.42
O=C1/C(=C/c2ccc3c(c2)OCO3)SC2C=Nc3ccccc3N12 (stereo not given)	> 100			> 100	> 100	> 100	> 100	> 100 µM	> 100								> 100			
CN(C)CC[PH+](c1ccccc1)c1ccccc1.CN(C)CC[PH+](c1ccccc1)c1ccccc1.[Cl-].[Pd+2]	> 100	> 100 µM	> 100	> 100	> 100	> 100	> 100	> 100 µM	> 100	> 100	> 100	> 100	> 100	> 100	> 100			> 100	> 100 µM	> 100
O=C(Nc1ccncc1)C(=O)c1cn(S(=O)(=O)c2ccc(F)cc2)c2ccccc12	> 100		> 100	> 100	> 100	53.7	36.2	> 100 µM	72.4	8.57		16.3	4.4	2.1	6.82	2.76	15.7	2.34	19.2 µM	2.22
O=C1/C(=C/c2cccc(Cl)c2Cl)N=C(c2ccccc2)N1C1CC1		41.4 µM	17.4	> 50	22.3	22.3		> 50 µM	27.7		15.6	15.3	10.3	10.3		6.06	15.9	26.7	10.7 µM	7.11
O=C(/C=C/c1cccc2ccccc12)c1ccccc1Cl	28.4	19.4 µM		29.2	36.5	31.9	34	17.6 µM	28.1								30.5			
COc1cc(F)ccc1-c1ncnc(Nc2cccc(CS(C)(=N)=O)c2)n1 (stereo not given)	> 100	3.14 µM	> 100	> 100	> 100	2.94	> 100	> 100 µM		2.54	0.392	1.79	0.707	0.385	1.05	0.434	3.46	0.673		0.373
C1=CC(N(c2ccccc2)C2C=CCCC2)CCC1 (stereo not given)		> 100 µM	> 100	> 100	> 100	> 100	> 100	> 100 µM	> 100											
CN(C)C(n1cc2c(c1)-c1ccc(Cl)cc1C(c1ccccc1F)=NC2)n1cc2c(c1)-c1ccc(Cl)cc1C(c1ccccc1F)=NC2	> 100	> 100 µM	47.9	> 100	> 100	> 100	> 100	> 100 µM									77.2			
CCC(C)COC(=O)c1ccc(N=Cc2ccc(C=Nc3ccc(C(=O)OCC(C)CC)cc3)cc2)cc1 (stereo not given)	> 100	> 100 µM	> 100	> 100	> 100	> 100	> 100	> 100 µM									> 100			
COc1ccc2c(c1)C(=O)c1c-2c(N2CCN(C(=O)CNCCNCCO)CC2)nc2ccccc12	7.58		4.72	4.14	9.38	10.6	3.54	3.28 µM	32.9	2.58		1.94	2.97	3.08	2.02			1.73	13.7 µM	2.18

Compound	TGI [1] [µM]	TGI [2]	TGI [3] [µM]	TGI [4] [µM]	TGI [5] [µM]	TGI [6] [µM]	TGI [7] [µM]	TGI [8]	TGI [9] [µM]	GI50 [1] [µM]	GI50 [2] [µM]	GI50 [4] [µM]	GI50 [5] [µM]	GI50 [6] [µM]	GI50 [7] [µM]	GI50 [10] [µM]	TGI [10] [µM]	GI50 [8] [µM]	GI50 [9]	GI50 [3] [µM]
COc1cc(NCc2ccc3nc(N)nc(N)c3c2C)cc(OC)c1OC (tested in a mixture with another compound)		29.4 µM and 26.3 µM	38.3	34.8	66.8		50.6	16.4 µM and 50.9 µM	47.5	0.00957	0.000746	0.000169					52.7	0.000285	23.2 µM and 4.8 µM	0.000242
COc1ccc(NC(=O)/C(Cc2cc(=O)oc3cc(O)ccc23)=N\NC(C)(C)C)c(OC)c1	> 100	> 100 µM	> 100	> 100	> 100	> 100	> 100	> 100 µM	> 100											
C=C(C)[C@@H]1CC[C@]2(C)[C@H](CC=C3[C@@H]4CC(C)(C)CC[C@]4(C(N)=O)CC[C@]32C)[C@@]1(C)CCC#N	> 100		> 100	8.62	> 100	13.6	> 100	30.1 µM	> 100	4.02		2.93	5.28	3.04	4.17	2.33	9.71	3.21	7.32 µM	3.69
COc1cc2c(cc1OCCCNC(=O)c1cccc3c(=O)c4ccccc4[nH]c13)N=C[C@@H]1CCCN1C2=O	0.0321	> 77 µM		3.76	2.07	< 0.01	2.89	23.6 µM	2.66	< 0.0103			< 0.0216	< 0.01	< 0.01			< 0.01	< 0.0434 µM	< 0.01
O=C1C=CC(=O)c2cc3cc(CBr)ccc3cc21	19.2	0.2 µM	3.02	> 80.3	> 73.9		> 63.1	4.97 µM	16.7	6.16		22	9.4		7.31	21.5	98.1	2.29	3.54 µM	1.44
CCOC(=O)Nc1ccc(-c2nc(-c3cccc(OCCN4CCOCC4)c3)c(-c3ccnc(Br)c3)[nH]2)cc1	6.11	5.39 µM		> 100	> 100	7.48	3.75	> 100 µM	> 100	2.28	2.15	3.32	4.55	2.08	1.78	1.34	6.91	3.42	4.26 µM	
CC(=O)c1sc(Nc2nnc(-c3ccc(-c4nnc(Nc5nc(C)c(C(C)=O)s5)o4)cc3)o2)nc1C	> 100	> 100 µM	> 100	> 100	> 100		> 100	> 100 µM	> 100											
CO/N=C(\COc1ccc2c(c1)oc(=O)c1cc(OC)ccc12)c1ccc(OC)cc1	> 100		> 100	> 100	> 100	> 100	> 100	> 100 µM	> 100	> 100		> 100	> 100	> 100	> 100			> 100	> 100 µM	> 100
Clc1ccc2[nH]cc(-c3nnnn3-c3ccccc3)c2c1	20.1		> 53.5	> 100	> 100	39	> 100	> 100 µM	> 31.6	5.32		20.3	53.1	16.5	14.3	6.25	30.8	14.9	7.29 µM	10.5
Cc1nn(-c2ccc(Cl)cc2)c2nc3c(nc12)C(=O)c1ccccc1-3	> 100	> 100 µM	> 100		> 100	> 100	> 100	> 100 µM		> 100	> 100		> 100	> 100	> 100	10.9	46.3	> 100		> 100
COc1ccc2[nH]cc(C3(c4c[nH]c5ccc(OC)cc45)C(=O)Nc4ccc(F)cc43)c2c1	8.97		3.26	5.17	12.7	10.5	6.75	11.5 µM		2.93		2.3	3.17	3.24	2.29	1.38	8.23	3.04		1.65
CCC[CH2][Sn]([Cl])([CH2]CCC)[CH2]CCC		0.351 µM	0.234	0.298	0.314		0.269	0.273 µM	0.261		0.121	0.13	0.148		0.139	0.111	0.354	0.125	0.129 µM	0.109
Cc1cc(N(CCC#N)CCC#N)ccc1N=Nc1ccc(C(=O)O)cc1	> 100		> 100		> 100	> 100	> 100	> 100 µM	> 100								> 100			
COC(=O)C(Cc1nc2ccc(Cl)cc2[nH]c1=O)/C(=N\N)C(=O)Nc1cc(C)c(Cl)cc1S(=O)(=O)O (stereo not given)	> 100		> 100	> 100	> 100	> 100	> 100													
CCOC(=O)C(=[N+]=[N-])[Si](C)(C)C	> 100		> 100	> 100	59.7	> 100	45.6	> 100 µM	> 100								> 100			
O=C(c1ccccc1)c1cc2ccccc2o1	> 100		> 100	> 100	> 100	> 100	> 100	> 100 µM	> 100	> 100		> 100	70.3	> 100	> 100	63.2	> 100	80	> 100 µM	73.6
